Experimental data reported in patent publication US20230248705A1, “ADMINISTRATION OF MODULATORS OF 5-HT AND / OR AMPA RECEPTORS FOR TREATING NEUROLOGICAL CONDITIONS” (THE ROYAL INSTITUTION FOR THE ADVANCEMENT OF …, priority 2020, published 2023).
Entries after “also recorded” stand apart in the source; their conditions may differ.

Legend:
[1] = tested on: mammalian target of rapamycin complex (mTOR); experiment: mTOR phosphorylation in the mPFC; format: in vivo, mice
[2] = target: dopamine D2 receptor (Homo sapiens, UniProt P14416); details: read-out: affinity (ki), partial agonist; cited from earlier work
[3] = tested on: dopaminergic system; details: doses 30-120 μg/kg, 60-120 μg/kg; leading to psychotic-like hallucinogenic symptoms; cited from earlier work
[4] = tested on: mice; experiment: light-dark box test after chronic restraint stress; format: in vivo; details: repeated LSD 30 μg/kg, FIG. 2A
Description: (§1) A paradigm of repeated stress-induced anxiety-like behavior was employed, in order to mimic anxious states induced by chronic stressor exposure in humans. Chronic restraint stress was chosen for its ability to reliably and relatively quickly induce anxiety-like behavior. Briefly, mice were placed in well ventilated plexiglass restrainers for 2 hours per day, for 15 days, then returned to a horizontal resting position on an open bench. During the procedure, the animals had no access to food and water. Control mice were left undisturbed in their home cage. This regimen duration was chosen given that, in pilot experiments, it represented the minimum duration of restraint stress which exacerbated anxiety-like behavior.
For the light-dark box test, an apparatus consisting of a light, open topped, opaque, plexiglass box (27×27×30 cm) connected to a dark, closed topped, opaque, plexiglass box (18×27×30 cm) was used. The light and dark boxes were connected by a small opening (12×5 cm) which allowed the mouse to cross between the two compartments. The light box was illuminated by a 100 W desk lamp. Each mouse was placed in the illuminated box and observed for 5 min. When the four paws were in the light box, the mouse was considered to be in the light compartment. […]

[5] = tested on: 5-HT neurons originating in the Dorsal Raphe Nucleus (DRN); details: doses 5-30 μg/kg; mice; cited from earlier work
[6] = tested on: glutamatergic and serotonergic neurotransmission in the medial prefrontal cortex (mPFC) and in the DRN; experiment: electrophysiological experiments in mPFC and DRN; format: in vivo, mice; details: repeated regimen of LSD
[7] = tested on: mice; experiment: head-twitches after acute dose; details: FIG. 3
[8] = tested on: healthy volunteers; details: cited from earlier work
[9] = tested on: male C57BL/6J mice; experiment: three chambers test (TCT); format: in vivo; details: repeated LSD 25-35 μg/kg per day for 7 days; vs veh; FIG. 1B
Description: (§2) The increase in social interaction was observed 24 hours after the last injection in two validated paradigms of social behavior: the direct social interaction test (FIG. 1A) and the three-chamber test (FIG. 1B).

[10] = tested on: mice; experiment: novelty suppressed feeding test after chronic restraint stress; format: in vivo; details: repeated LSD 30 μg/kg; chronic restraint stress mice vs vehicle-treated stressed mice; FIG. 2B
Description: as §1
This procedure was used to measure neohypophagia (the anxiety-induced inhibition of feeding upon exposure to a novel environment). This test is used to validate the acute effects of putative anxiolytics. Mice were food-deprived for 48-hours; subsequently, each mouse was placed in a brightly illuminated (100 W, 350 Ix) open arena (40×40 cm, white-painted floor with walls 30 cm high), containing standard chow (3 pellets) in the center of the arena. The latency to initiate feeding (in seconds) was used as an index of anxiety-like behavior. […]

[11] = tested on: male C57BL/6J mice; experiment: direct social interaction test (DSI); format: in vivo
Description: as §2

Sequence of dopamine D2 receptor (P14416 whole entry, species assumed): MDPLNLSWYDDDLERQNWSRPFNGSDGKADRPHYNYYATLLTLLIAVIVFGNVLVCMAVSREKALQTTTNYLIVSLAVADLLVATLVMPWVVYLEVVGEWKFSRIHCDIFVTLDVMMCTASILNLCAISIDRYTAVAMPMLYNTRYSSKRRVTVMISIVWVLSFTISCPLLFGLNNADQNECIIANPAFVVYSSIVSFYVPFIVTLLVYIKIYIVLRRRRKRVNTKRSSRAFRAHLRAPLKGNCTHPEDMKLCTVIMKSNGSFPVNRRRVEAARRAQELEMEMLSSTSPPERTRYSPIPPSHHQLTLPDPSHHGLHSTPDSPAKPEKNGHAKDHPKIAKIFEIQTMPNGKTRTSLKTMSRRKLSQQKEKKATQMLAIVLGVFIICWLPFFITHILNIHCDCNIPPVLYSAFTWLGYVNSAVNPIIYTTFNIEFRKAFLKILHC

CCN(CC)C(=O)[C@@H]1C=C2c3cccc4[nH]cc(c34)C[C@H]2N(C)C1 [LSD, Lysergic acid diethylamide]
phosphorylation levels of mTOR [1]: increased the phosphorylation levels
Ki [2]: 25 nM
dopaminergic system activity [3]: inhibit the dopaminergic system
anxiety-like behavior: number of transitions between light and dark compartments [4]: prevents chronic stress-induced anxiety-like behavior; also recorded: number of entries similar to the control mice treated with the vehicle; also recorded: normalized the transition between the dark and the light compartment
activity of 5-HT neurons [5]: decreasing the activity of 5-HT neurons
glutamatergic and serotonergic neurotransmission [6]: potentiates both glutamatergic and serotonergic neurotransmission
hallucinogenic effects (head-twitches) ([7]; acute (single) dose 15 μg/kg or less): did not provide hallucinogenic effects
adverse events (hallucinations, head twitches) ([7]; acute (single) dose 30 μg/kg): produces adverse events
adverse events (hallucinations, head twitches) ([7]; acute (single) dose 60 μg/kg): produces adverse events
head twitches versus dose ([7]; as an acute (single) dose is increased): increase in head twitches
optimism, mood and trait openness ([8]; 2 weeks after LSD administration): increased optimism, mood and trait openness
mood and social effects ([8]; after 200 μg of LSD): Positive mood changes and altruistic/positive social effects
social behavior ([8]; healthy volunteers): increase social behavior
preference for social novelty / sniffing time toward a novel mouse [9]: promoted the preference for the social novelty; also recorded: promotes preference for social novelty
anxiety-like behavior: latency to feed [10]: prevents chronic stress-induced anxiety-like behavior; also recorded: reduced latency to feed; also recorded: decreased latency to feed
social interaction ([11]; lower doses 5, 10 μg/kg for 3 days): non-significant increase in social interaction
social interaction / interaction time toward the unfamiliar mouse ([11]; repeated LSD 25-35 μg/kg per day for 7 days, 24 hours after last injection, vs veh (saline), FIG. 1A): increased social interaction; also recorded: increases interaction time
social behavior ([11]; single administration, FIG. 1A): did not produce any effect on social behavior
